Assay results from patent US20160022731A1, “[…] NITRIC OXIDE FOR TREATING RESPIRATORY DISEASES” (Advanced Inhalation Therapies (AIT) Ltd., priority 2013, published 2016).
Read-outs that look alike come from different tables or passages of the source.

Columns and labels:
[1] = tested on: chronic, non-healing wound; details: topical 200 ppm gNO; within the first three days of treatment; cited from earlier work
P. aeruginosa = P. aeruginosa on agar; 50-160 ppm gNO, vs medical air; cited from earlier work
[2] = rats, cited from earlier work
[3] = tested on: bovine respiratory disease; details: cattle; intermittent 30 minute exposures of gNO; cited from earlier work
S. aureus = S. aureus on agar; 50-160 ppm gNO, vs medical air; cited from earlier work
[4] = Phase I open label safety study of intermittent inhalation of 160 ppm gNO in healthy adults; format: in vivo, human
Excerpt: 10 healthy adult volunteer subjects (5 males, 5 females), aged 20 to 62 years, were enrolled in the study after screening their medical history, a physical examination, pulmonary function tests and blood values. Exclusion criteria included individuals less than 19 years of age, pregnant females and unwilling to practice birth control during the study, diagnosed with pulmonary disease, epistaxis, hemoptysis, methemoglobinemia, organ transplant recipient or receiving antibiotic therapy.
After obtaining informed consent, treatment was initiated within 5 days of enrollment. Subjects were housed in a hospital ward and received 160 ppm gNO for 30 minutes every four hours (Q4 h), five times a day, for five consecutive days by inhalation. Subjects returned for follow-up evaluations 3, 7 and 21 days after the final gNO administration. Subject safety was determined by monitoring vital signs, methemoglobin levels, lung function, blood chemistry, hematology, prothrombin time, inflammatory cytokine/chemokines levels and endothelial activation. These parameters were compared to baseline and at various time-points during and after gNO administration.
Subjects were administered gNO through a modified disposable mouthpiece to maximize mixing. Inspiration was spontaneously initiated by the subject from a conventional intermittent positive pressure breathing respirator (Mark-7, Carefusion, USA) in fixed flow mode delivering 48 liters per minute (LPM). Flows of gas were verified with a calibrated mass flow meter (TSI, USA). Gaseous nitric oxide (gNO, obtained at INOmax, Ikaria, USA) at a concentration of 800 ppm delivered at a flow of 12 LPM was titrated into a distal delivery port on the mouth piece connected to the respirator during inspiratory phase only (pressure switch). The Mark 7 respirator was supplied by an air/oxygen blender (Bird Sentry, Carefusion, USA) set to deliver 26% oxygen.
The levels of gNO, NO2, O2 and methemoglobin were monitored during the administration of gNO. […] Inspiratory NO, NO2 and O2 levels were continuously monitored by sampling from the mouthpiece sample port located about 6 millimeters from the mouth of the subject with an AeroNOx (Pulmonox, AB, Canada) NO, NO2 and O2 electrochemical analyzer. Delivery safety was determined by the number of occasions that NO2 exceeded 5 ppm, gNO exceeding 10% variation and O2 dropping below 20% during gNO administration. […]
These parameters were measured continuously during every gNO administration course and for 3.5 hours after the first treatment of the day. Daily serum samples were collected and frozen at −80° C. and the serum […] level was measured using the Griess reagent.
Subjects underwent full pulmonary function tests (PFT), including lung diffusing capacity (DLCO) by a trained technician utilizing a calibrated pulmonary function system (Jaeger MasterScreen, VIASYS Healthcare, USA) on screening and days 2, 8, 12 and 26. […] Effect of gNO on lung function and DLCO was determined by changes from baseline, treatment days and follow up days.
General medical examinations were performed by a pulmonary physician on screening and on days 8, 12 and 26 to obtain oxygenation and vital sign measurements. […] Oxygenation was measured with a pulse oximeter (Rad 57, Masimo Corporation, USA) which was used according to manufacturer's guidelines to measure functional oxygen saturation of arterial hemoglobin (SpO2) and heart rate. […]

[5] = tested on: five planktonic species of methicillin resistant S. aureus (MRSA); details: 1,600 ppm hours of gNO; cited from earlier work
[6] = healthy humans, cited from earlier work

Compound: [N]=O [gNO, nitric oxide]
- presence of biofilm in the wound [1]: no longer visibly present
- survival (bactericidal trend) (P. aeruginosa): 5-10%
- mortality ([2]; groups of 10, 300 ppm gNO, 6 continuous hours per day): Six of the animals treated with 300 ppm gNO died during the first 1-2 days
- MetHb levels ([2]; 400 ppm gNO): 72.5 percents
- MetHb levels ([2]; 500 ppm gNO): 67 percents
- clinical symptoms of bovine respiratory disease [3]: decrease the clinical symptoms of bovine respiratory disease
- survival (bactericidal trend) (S. aureus): 5-10%
- accumulative effect on SpMet ([4]; after five daily treatments for five consecutive days): no accumulative or lingering effect on SpMet
- DLCO, FVC, TLC and RV ([4]; during the course of the study): did not change from baseline measurement
- airflow as measured by FEV1 and MMEF ([4]; during the course of the study): did not differ from baseline
- Ang-2 and Ang-2/Ang-1 ratios ([4]; plasma): not affected
- cytokine levels of TNF, IL-6, IL-8, IL-10, IL-1b and IL-12p70 ([4]; plasma, compared to baseline): unaffected
- population of planktonic MRSA strains [5]: reduction in the population of all five MRSA planktonic strains
- levels of MetHb ([6]; inhalation of gNO at 128 ppm for 3 hours): > 5%
- levels of MetHb ([6]; inhalation of gNO at 512 ppm for 55 minutes): > 5%
